{"source": "paper PMC7394586", "about": "(OncoTargets and therapy, 2020)", "key": {"MHCC97-H cells [1]": {"tested_on": "MHCC97-H cells", "test": "MTT cell survival assay", "assay_type": "cell-based, human", "details": "for change of IC50 on MHCC97-H cells on overexpression of miR-3609: miR-3609 overexpression versus control"}, "[2]": {"test": "Clinical outcome of advanced HCC patients who received sorafenib treatment", "assay_type": "in vivo, human"}, "[3]": {"tested_on": "PDC No. 5 subcutaneous growth", "test": "Antitumor effect in vivo, subcutaneous tumor model", "parameters": "species or system nude mice", "details": "oral administration every 2 days, 10 treatments"}, "[4]": {"test": "Cell-based metabolism/clearance of sorafenib", "assay_type": "in vitro ADME, human", "details": "human, MHCC97-H cells, Half-Life Time (t1/2, h), MHCC97-H, Cell-based, 1 μmol/L sorafenib"}, "MHCC97-H cells [5]": {"tested_on": "MHCC97-H cells", "test": "Cell-based metabolism/clearance of sorafenib", "assay_type": "in vitro ADME, human", "details": "LC-MS/MS, cultured HCC cells"}, "[6]": {"tested_on": "PDC No. 2 subcutaneous growth", "test": "Antitumor effect in vivo, subcutaneous tumor model", "parameters": "species or system nude mice", "details": "oral administration every 2 days, 10 treatments"}, "[7]": {"tested_on": "MHCC97-H subcutaneous growth", "test": "Antitumor effect in vivo, subcutaneous tumor model", "parameters": "species or system nude mice", "details": "for IC50 values of Soarfenib on Subcutaneous Tumor Weights: MHCC97-H, oral administration every 2 days, 10 treatments"}, "[8]": {"tested_on": "PDC No. 3 subcutaneous growth", "test": "Antitumor effect in vivo, subcutaneous tumor model", "parameters": "species or system nude mice", "details": "oral administration every 2 days, 10 treatments"}, "[9]": {"tested_on": "PDC No. 4 subcutaneous growth", "test": "Antitumor effect in vivo, subcutaneous tumor model", "parameters": "species or system nude mice", "details": "oral administration every 2 days, 10 treatments"}, "[10]": {"tested_on": "PDC No. 3 subcutaneous tumors", "test": "Tumor-based clearance of sorafenib in subcutaneous tumors", "assay_type": "in vivo, nude mice", "details": "PDC No. 3, Tumor-based, miR-3609; sorafenib injected into subcutaneous tumors"}, "[11]": {"tested_on": "PDC No. 1 subcutaneous growth", "test": "Antitumor effect in vivo, subcutaneous tumor model", "parameters": "species or system nude mice", "details": "oral administration every 2 days, 10 treatments"}, "[12]": {"tested_on": "MHCC97-H subcutaneous tumors", "test": "Tumor-based clearance of sorafenib in subcutaneous tumors", "assay_type": "in vivo, nude mice", "details": "Control, sorafenib injected into subcutaneous tumors"}, "[13]": {"tested_on": "PDC No. 1 subcutaneous tumors", "test": "Tumor-based clearance of sorafenib in subcutaneous tumors", "assay_type": "in vivo, nude mice", "details": "PDC No. 1, Tumor-based, Control; sorafenib injected into subcutaneous tumors"}, "[14]": {"details": "patients with EPAS-1 mRNA expression High (n = 26)"}, "[15]": {"details": "patients with EPAS-1 mRNA expression Low (n = 26)"}, "[16]": {"details": "patients with miR-3609 expression High (n = 26)"}, "[17]": {"details": "patients with miR-3609 expression Low (n = 26)"}}}
{"compound": "CNC(=O)c1cc(Oc2ccc(NC(=O)Nc3ccc(Cl)c(C(F)(F)F)c3)c(F)c2)ccn1", "note": "[regorafenib]", "values": [{"measurement": "change of IC50 on MHCC97-H cells on overexpression of miR-3609", "setting": "MHCC97-H cells [1]", "value": "decreased"}]}
{"compound": "COc1cc2c(Oc3ccc4[nH]c(C)cc4c3F)ccnc2cc1OCC1(N)CC1", "note": "[anlotinib]", "values": [{"measurement": "change of IC50 on MHCC97-H cells on overexpression of miR-3609", "setting": "MHCC97-H cells [1]", "value": "decreased"}]}
{"compound": "COc1cc2nccc(Oc3ccc(NC(=O)NC4CC4)c(Cl)c3)c2cc1C(N)=O", "note": "[lenvatinib]", "values": [{"measurement": "change of IC50 on MHCC97-H cells on overexpression of miR-3609", "setting": "MHCC97-H cells [1]", "value": "decreased"}]}
{"compound": "N#CC1(c2ccc(NC(=O)c3cccnc3NCc3ccncc3)cc2)CCCC1", "note": "[apatinib]", "values": [{"measurement": "change of IC50 on MHCC97-H cells on overexpression of miR-3609", "setting": "MHCC97-H cells [1]", "value": "decreased"}]}
{"compound": "CNC(=O)c1cc(Oc2ccc(NC(=O)Nc3ccc(Cl)c(C(F)(F)F)c3)cc2)ccn1", "note": "[sorafenib]", "values": [{"measurement": "OS (overall survival)", "setting": "[2]; [14]", "value": 11.0, "unit": "M"}, {"measurement": "TTP (time to progress)", "setting": "[2]; [14]", "value": 8.0, "unit": "M"}, {"measurement": "OS (overall survival)", "setting": "[2]; [15]", "value": 16.0, "unit": "M"}, {"measurement": "TTP (time to progress)", "setting": "[2]; [15]", "value": 13.0, "unit": "M"}, {"measurement": "OS (overall survival)", "setting": "[2]; [16]", "value": 15.0, "unit": "M"}, {"measurement": "TTP (time to progress)", "setting": "[2]; [16]", "value": 12.0, "unit": "M"}, {"measurement": "OS (overall survival)", "setting": "[2]; [17]", "value": 12.0, "unit": "M"}, {"measurement": "TTP (time to progress)", "setting": "[2]; [17]", "value": 8.0, "unit": "M"}, {"measurement": "IC50 values of Soarfenib on Subcutaneous Tumor Weights", "setting": "[3]; PDC No. 5, Control", "value": "2.88 ± 0.39", "unit": "mg/kg"}, {"measurement": "IC50 values of Soarfenib on Subcutaneous Tumor Weights", "setting": "[3]; PDC No. 5, miR-3609 + EPAS-1^Mut", "value": "2.32 ± 0.69", "unit": "mg/kg"}, {"measurement": "IC50 values of Soarfenib on Subcutaneous Tumor Weights", "setting": "[3]; PDC No. 5, miR-3609", "value": "0.66 ± 0.21", "unit": "mg/kg"}, {"measurement": "half-life at 1 μmol/L", "setting": "[4]; Control", "value": "18.6 ± 2.46", "unit": "h"}, {"measurement": "half-life at 1 μmol/L", "setting": "[4]; miR-3609 + EPAS-1^Mut", "value": "18 ± 3.18", "unit": "h"}, {"measurement": "half-life at 1 μmol/L", "setting": "[4]; miR-3609", "value": "37.1 ± 6.12", "unit": "h"}, {"measurement": "metabolism and clearance in HCC cells", "setting": "MHCC97-H cells [5]", "value": "gradually metabolized and cleared"}, {"measurement": "IC50 values of Soarfenib on Subcutaneous Tumor Weights", "setting": "[6]; PDC No. 2, Control", "value": "1.77 ± 0.20", "unit": "mg/kg"}, {"measurement": "IC50 values of Soarfenib on Subcutaneous Tumor Weights", "setting": "[6]; PDC No. 2, miR-3609 + EPAS-1^Mut", "value": "2.20 ± 0.45", "unit": "mg/kg"}, {"measurement": "IC50 values of Soarfenib on Subcutaneous Tumor Weights", "setting": "[6]; PDC No. 2, miR-3609", "value": "0.48 ± 0.10", "unit": "mg/kg"}, {"measurement": "IC50 values of Soarfenib on Subcutaneous Tumor Weights", "setting": "[7]; Control", "value": "2.25 ± 0.44", "unit": "mg/kg"}, {"measurement": "IC50 values of Soarfenib on Subcutaneous Tumor Weights", "setting": "[7]; miR-3609 + EPAS-1^Mut", "value": "2.51 ± 0.52", "unit": "mg/kg"}, {"measurement": "IC50 values of Soarfenib on Subcutaneous Tumor Weights", "setting": "[7]; miR-3609", "value": "0.15 ± 0.02", "unit": "mg/kg"}, {"measurement": "subcutaneous growth of MHCC97-H cells", "setting": "[7]; nude mice, oral administration", "value": "inhibited the subcutaneous growth of MHCC97-H cells in a dose-dependent manner"}, {"measurement": "IC50 values of Soarfenib on Subcutaneous Tumor Weights", "setting": "[8]; PDC No. 3, Control", "value": "1.99 ± 0.54", "unit": "mg/kg"}, {"measurement": "IC50 values of Soarfenib on Subcutaneous Tumor Weights", "setting": "[8]; PDC No. 3, miR-3609 + EPAS-1^Mut", "value": "1.81 ± 0.41", "unit": "mg/kg"}, {"measurement": "IC50 values of Soarfenib on Subcutaneous Tumor Weights", "setting": "[8]; PDC No. 3, miR-3609", "value": "0.30 ± 0.04", "unit": "mg/kg"}, {"measurement": "IC50 values of Soarfenib on Subcutaneous Tumor Weights", "setting": "[9]; PDC No. 4, Control", "value": "2.70 ± 0.70", "unit": "mg/kg"}, {"measurement": "IC50 values of Soarfenib on Subcutaneous Tumor Weights", "setting": "[9]; PDC No. 4, miR-3609 + EPAS-1^Mut", "value": "2.76 ± 0.62", "unit": "mg/kg"}, {"measurement": "IC50 values of Soarfenib on Subcutaneous Tumor Weights", "setting": "[9]; PDC No. 4, miR-3609", "value": "0.95 ± 0.60", "unit": "mg/kg"}, {"measurement": "Half-Life Time (t1/2, h)", "setting": "[10]", "value": "50.73 ± 4.02", "unit": "h"}, {"measurement": "IC50 values of Soarfenib on Subcutaneous Tumor Weights", "setting": "[11]; PDC No. 1, Control", "value": "~3", "unit": "mg/kg"}, {"measurement": "IC50 values of Soarfenib on Subcutaneous Tumor Weights", "setting": "[11]; PDC No. 1, miR-3609 + EPAS-1^Mut", "value": ">3", "unit": "mg/kg"}, {"measurement": "IC50 values of Soarfenib on Subcutaneous Tumor Weights", "setting": "[11]; PDC No. 1, miR-3609", "value": "0.87 ± 0.39", "unit": "mg/kg"}, {"measurement": "Half-Life Time (t1/2, h)", "setting": "[12]", "value": "30.73 ± 6.46", "unit": "h"}, {"measurement": "Half-Life Time (t1/2, h)", "setting": "[13]", "value": "26.32 ± 6.91", "unit": "h"}, {"measurement": "survival of MHCC97-H cells", "setting": "MHCC97-H cells [1]; 0.01-10 μmol/L", "value": "inhibited the survival of MHCC97-H cells in a dose-dependent manner"}, {"measurement": "change of IC50 on MHCC97-H cells on overexpression of miR-3609", "setting": "MHCC97-H cells [1]", "value": "decreased"}]}
